This assay has as its target GST-Bcl-2 (Homo sapiens (Human), UniProt P10415). As to the kind of experiment: Time Resolved-Fluorescence Resonance Energy Transfer (TR-FRET) Bcl-2 binding assay. The gist of the method: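 Ki values derived from TR-FRET displacement of F-Bak peptide from GST-Bcl-2, detected with Tb-labelled anti-GST antibody (ex 340, em 520/495 nm). Compound dilution series started at 50 μM (2× starting concentration); room-temperature incubation 3 hours.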

[1] abbreviates: GST-Bcl-2 1 nM, F-Bak peptide probe 100 nM, Tb-anti-GST antibody 1 nM, Ki by Wang's equation.

Drawing on patent US8952157B2, “Apoptosis-inducing agents for the treatment of cancer and immune and autoimmune diseases” (AbbVie Inc., priority 2008, dated 2015), this text covers Ki for 20 compounds.

Like-named read-outs stand apart in the source and are kept apart here.

Sequence of GST-Bcl-2 (P10415 whole entry): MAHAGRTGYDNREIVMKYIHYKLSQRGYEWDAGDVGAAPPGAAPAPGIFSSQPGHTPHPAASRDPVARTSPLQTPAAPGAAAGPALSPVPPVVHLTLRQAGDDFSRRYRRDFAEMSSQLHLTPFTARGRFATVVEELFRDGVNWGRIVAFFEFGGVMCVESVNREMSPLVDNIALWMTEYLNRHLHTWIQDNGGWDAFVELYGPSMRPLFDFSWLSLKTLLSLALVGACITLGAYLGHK

Compound “4-(4-{[4-(4-chlorophenyl)-6,6-dimethyl-5,6-dihydro-2H-pyran-3-yl]methyl)}piperazin-1-yl)-2-[(6-fluoro-1H-indol-5-yl)oxy]-N-({4-[(4-fluorotetrahydro-2H-pyran-4-yl)methoxy]-3-nitrophenyl}sulfonyl)benzamide [Example 297]” had a Ki under setting [1] of less than 0.01 nM. The same measure, in the same setting: then `CC1(C)CC(c2ccc(Cl)cc2)=C(CN2CCN(c3ccc(C(=O)NS(=O)(=O)c4ccc(NC5CCC(N6CCOCC6)CC5)c([N+](=O)[O-])c4)c(Oc4cc5cc[nH]c5cc4F)c3)CC2)CO1` (centres unmarked) [Example 295, 4-(4-{[4-(4-chlorophenyl)-6,6-dimethyl-5,6-dihydro-2H-pyran-3-yl]methyl}piperazin-1-yl)-2-[(6-fluoro-1H-indol-5-yl)oxy]-N-({4-[(4-morpholin-4-ylcyclohexyl)amino]-3-nitrophenyl}sulfonyl)benzamide], with 0.077 nM; and `COCCNc1ccc(S(=O)(=O)NC(=O)c2ccc(N3CCN(CC4=C(c5ccc(Cl)cc5)CC(C)(C)CC4)CC3)cc2Oc2cc3cc[nH]c3cc2F)cc1[N+](=O)[O-]` [Example 263, 4-(4-{[2-(4-chlorophenyl)-4,4-dimethylcyclohex-1-en-1-yl]methyl}piperazin-1-yl)-2-[(6-fluoro-1H-indol-5-yl)oxy]-N-({4-[(2-methoxyethyl)amino]-3-nitrophenyl}sulfonyl)benzamide], with 0.11 nM. In turn, `O=C(NS(=O)(=O)c1ccc(NCC2CCOCC2)c([N+](=O)[O-])c1)c1ccc(N2CCN(Cc3ccccc3-c3ccc(Cl)cc3)CC2)cc1Oc1cccc(-c2ccccc2)c1` [Example 86, 2-(1,1′-biphenyl-3-yloxy)-4-(4-((4′-chloro-1,1′-biphenyl-2-yl)methyl)piperazin-1-yl)-N-((3-nitro-4-((tetrahydro-2H-pyran-4-ylmethyl)amino)phenyl)sulfonyl)benzamide] registered a Ki under setting [1] of 5.26 nM.

Consider `CC(C)N1CCC(Nc2ccc(S(=O)(=O)NC(=O)c3ccc(N4CCN(CC5=C(c6ccc(Cl)cc6)CC(C)(C)CC5)CC4)cc3Oc3ccccc3Cl)cc2[N+](=O)[O-])CC1` [Example 41, 2-(2-chlorophenoxy)-4-(4-((2-(4-chlorophenyl)-4,4-dimethylcyclohex-1-en-1-yl)methyl)piperazin-1-yl)-N-((4-((1-isopropylpiperidin-4-yl)amino)-3-nitrophenyl)sulfonyl)benzamide], for which, under setting [1], the Ki stood at 0.027 nM. For `CC1(C)CCC(CN2CCN(c3ccc(C(=O)NS(=O)(=O)c4ccc(O[C@H]5CC[C@H](N6CCOCC6)CC5)c([N+](=O)[O-])c4)c(Oc4cc5cc[nH]c5cc4F)c3)CC2)=C(c2ccc(Cl)cc2)C1` [Example 311, Trans-4-(4-{[2-(4-chlorophenyl)-4,4-dimethylcyclohex-1-en-1-yl]methyl}piperazin-1-yl)-2-[(6-fluoro-1H-indol-5-yl)oxy]-N-({4-[(4-morpholin-4-ylcyclohexyl)oxy]-3-nitrophenyl}sulfonyl)benzamide], the Ki turned out to be 0.185 nM.

In the case of `Cc1nc2cc(Oc3cc(N4CCN(Cc5ccccc5-c5ccc(Cl)cc5)CC4)ccc3C(=O)NS(=O)(=O)c3ccc(NCCCN4CCOCC4)c([N+](=O)[O-])c3)ccc2s1` [Example 24, 4-(4-((4′-chloro-1,1′-biphenyl-2-yl)methyl)piperazin-1-yl)-2-((2-methyl-1,3-benzothiazol-5-yl)oxy)-N-((4-((3-morpholin-4-ylpropyl)amino)-3-nitrophenyl)sulfonyl)benzamide], the affinity under setting [1] corresponds to a Ki of 15 nM. `CN1CCC(Nc2ccc(S(=O)(=O)NC(=O)c3ccc(N4CCN(CC5=C(c6ccc(Cl)cc6)CC(C)(C)CC5)CC4)cc3Oc3ccccc3Cl)cc2[N+](=O)[O-])CC1` [Example 34, 2-(2-chlorophenoxy)-4-(4-((2-(4-chlorophenyl)-4,4-dimethylcyclohex-1-en-1-yl)methyl)piperazin-1-yl)-N-((4-((1-methylpiperidin-4-yl)amino)-3-nitrophenyl)sulfonyl)benzamide] yielded a Ki under setting [1] of 0.049 nM. Regarding `O=C(NS(=O)(=O)c1ccc(NCCCN2CCOCC2)c([N+](=O)[O-])c1)c1ccc(N2CCN(Cc3ccccc3-c3ccc(Cl)cc3)CC2)cc1Oc1cccc(N2CCOCC2)c1` [Example 69, 4-(4-((4′-chloro-1,1′-biphenyl-2-yl)methyl)piperazin-1-yl)-2-(3-morpholin-4-ylphenoxy)-N-((4-((3-morpholin-4-ylpropyl)amino)-3-nitrophenyl)sulfonyl)benzamide], the Ki under setting [1] was 8.25 nM.

Consider `CC1(C)CCC(CN2CCN(c3ccc(C(=O)NS(=O)(=O)c4cnc(OCC5CCOCC5)c(Cl)c4)c(Oc4cc5cc[nH]c5cc4F)c3)CC2)=C(c2ccc(Cl)cc2)C1` [Example 303, 4-(4-{[2-(4-chlorophenyl)-4,4-dimethylcyclohex-1-en-1-yl]methyl}piperazin-1-yl)-N-{[5-chloro-6-(tetrahydro-2H-pyran-4-ylmethoxy)pyridin-3-yl]sulfonyl}-2-[(6-fluoro-1H-indol-5-yl)oxy]benzamide], for which the inhibition constant (Ki) under setting [1] came to 0.092 nM. The same measure, in the same setting: then `CN(C)C1CCC(Nc2ccc(S(=O)(=O)NC(=O)c3ccc(N4CCN(CC5=C(c6ccc(Cl)cc6)CC(C)(C)CC5)CC4)cc3Oc3cccc(Cl)c3)cc2[N+](=O)[O-])CC1` (centres unmarked) [Example 203, 2-(3-chlorophenoxy)-4-(4-{[2-(4-chlorophenyl)-4,4-dimethylcyclohex-1-en-1-yl]methyl}piperazin-1-yl)-N-[(4-{[4-(dimethylamino)cyclohexyl]amino}-3-nitrophenyl)sulfonyl]benzamide], with 0.084 nM; and `CC1(C)CCC(CN2CCN(c3ccc(C(=O)NS(=O)(=O)c4ccc(NCC5CCOCC5)c([N+](=O)[O-])c4)c(Oc4cnc(N)c(Br)c4)c3)CC2)=C(c2ccc(Cl)cc2)C1` [Example 350, 2-[(6-amino-5-bromopyridin-3-yl)oxy]-4-(4-{[2-(4-chlorophenyl)-4,4-dimethylcyclohex-1-en-1-yl]methyl}piperazin-1-yl)-N-({3-nitro-4-[(tetrahydro-2H-pyran-4-ylmethyl)amino]phenyl}sulfonyl)benzamide], with less than 0.01 nM; and `Cc1cc2cc(Oc3cc(N4CCN(CC5=C(c6ccc(Cl)cc6)CC(C)(C)CC5)CC4)ccc3C(=O)NS(=O)(=O)c3ccc(NCCCN4CCOCC4)c([N+](=O)[O-])c3)ccc2[nH]1` [Example 4, 4-(4-((2-(4-chlorophenyl)-4,4-dimethylcyclohex-1-en-1-yl)methyl)piperazin-1-yl)-2-((2-methyl-1H-indol-5-yl)oxy)-N-((4-((3-morpholin-4-ylpropyl)amino)-3-nitrophenyl)sulfonyl)benzamide], with 2.47 nM. On the same count and under the same terms, the same measure for `CC1(C)CCC(CN2CCN(c3ccc(C(=O)NS(=O)(=O)c4ccc(NCC5CCOCC5)c([N+](=O)[O-])c4)c(Oc4cc5cc[nH]c5cc4Cl)c3)CC2)=C(c2ccc(Cl)cc2)C1` [Example 276, 2-[(6-chloro-1H-indol-5-yl)oxy]-4-(4-{[2-(4-chlorophenyl)-4,4-dimethylcyclohex-1-en-1-yl]methyl}piperazin-1-yl)-N-({3-nitro-4-[(tetrahydro-2H-pyran-4-ylmethyl)amino]phenyl}sulfonyl)benzamide]: 0.199 nM. The same measure, in the same setting: then `CC1(C)CCC(CN2CCN(c3ccc(C(=O)NS(=O)(=O)c4ccc(NCC5CCOCC5)c([N+](=O)[O-])c4)c(Oc4cc5cc[nH]c5c(F)c4F)c3)CC2)=C(c2ccc(Cl)cc2)C1` [Example 243, 4-(4-{[2-(4-chlorophenyl)-4,4-dimethylcyclohex-1-en-1-yl]methyl}piperazin-1-yl)-2-[(6,7-difluoro-1H-indol-5-yl)oxy]-N-({3-nitro-4-[(tetrahydro-2H-pyran-4-ylmethyl)amino]phenyl}sulfonyl)benzamide], with 0.069 nM; and `CC1(C)CCC(CN2CCN(c3ccc(C(=O)NS(=O)(=O)c4cnc(OCC5(F)CCN(CC(F)F)CC5)c(Cl)c4)c(Oc4cnc(N)c(Cl)c4)c3)CC2)=C(c2ccc(Cl)cc2)C1` [Example 403, 2-[(6-amino-5-chloropyridin-3-yl)oxy]-N-[(5-chloro-6-{[1-(2,2-difluoroethyl)-4-fluoropiperidin-4-yl]methoxy}pyridin-3-yl)sulfonyl]-4-(4-{[2-(4-chlorophenyl)-4,4-dimethylcyclohex-1-en-1-yl]methyl}piperazin-1-yl)benzamide], with 2.14 nM; and `CC1(C)CCC(CN2CCN(c3ccc(C(=O)NS(=O)(=O)c4ccc(NC5CCN(C6CC6)CC5)c([N+](=O)[O-])c4)c(Oc4cnc(N)c(Cl)c4)c3)CC2)=C(c2ccc(Cl)cc2)C1` [Example 358, 2-[(6-amino-5-chloropyridin-3-yl)oxy]-4-(4-{[2-(4-chlorophenyl)-4,4-dimethylcyclohex-1-en-1-yl]methyl}piperazin-1-yl)-N-({4-[(1-cyclopropylpiperidin-4-yl)amino]-3-nitrophenyl}sulfonyl)benzamide], with 0.062 nM.

Consider `CN1CCC(Nc2ccc(S(=O)(=O)NC(=O)c3ccc(N4CCN(CC5=C(c6ccc(Cl)cc6)CC(C)(C)OC5)CC4)cc3Oc3cccc(I)c3)cc2[N+](=O)[O-])CC1` [Example 161, 4-(4-{[4-(4-chlorophenyl)-6,6-dimethyl-5,6-dihydro-2H-pyran-3-yl]methyl}piperazin-1-yl)-2-(3-iodophenoxy)-N-({4-[(1-methylpiperidin-4-yl)amino]-3-nitrophenyl}sulfonyl)benzamide], for which the Ki under setting [1] came to 0.031 nM.

In turn, `CC(=O)Nc1ccc(Oc2cc(N3CCN(Cc4ccccc4-c4ccc(Cl)cc4)CC3)ccc2C(=O)NS(=O)(=O)c2ccc(NCC3CCOCC3)c([N+](=O)[O-])c2)cc1` [Example 82, 2-(4-(acetylamino)phenoxy)-4-(4-((4′-chloro-1,1′-biphenyl-2-yl)methyl)piperazin-1-yl)-N-((3-nitro-4-((tetrahydro-2H-pyran-4-ylmethyl)amino)phenyl)sulfonyl)benzamide] had a Ki under setting [1] of 512 nM. On the same count and under the same terms, the same measure for `CN1CCC(Nc2ccc(C(=O)NS(=O)(=O)c3ccc(N4CCN(Cc5ccccc5-c5ccc(Cl)cc5)CC4)cc3Oc3cc(Cl)cc(Cl)c3)cc2[N+](=O)[O-])CC1` [Example 111, N-{[4-{4-[(4′-chloro-1,1′-biphenyl-2-yl)methyl]piperazin-1-yl}-2-(3,5-dichlorophenoxy)phenyl]sulfonyl}-4-[(1-methylpiperidin-4-yl)amino]-3-nitrobenzamide]: 17.4 nM.
